# Assay results reported in PubChem BioAssay AID1963981 (Molecular Pharmacology Branch, DTP, NCI, 2024).
# Tested on: 354836-022-R-J1-PDC multicell spheroid viability
# Assay: Anticancer human tumor 354836-022-R-J1-PDC patient-derived head and neck squamous cell carcinoma cell line growth inhibition [PI3K]
# Conditions: for IC50: curve of first compound; for viability, T/C: stronger effect = lower value
# How it was run: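 Three cell types, namely tumor cells, endothelial cells and mesenchymal stem cells, formed each spheroid. Combinations with four PI3K inhibitors were screened at clinically achievable concentrations decreasing by half-log, and spheroid viability was recorded.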
# [1] = second compound 0.0316 µM, first compound 0.0316 µM
# [2] = second compound 0.0316 µM, first compound 0.1 µM
# [3] = second compound 0.0316 µM, first compound 0.316 µM
# [4] = second compound 0.0316 µM, first compound 1 µM
# [5] = second compound 0.1 µM, first compound 0.0316 µM
# [6] = second compound 0.1 µM, first compound 0.1 µM
# [7] = second compound 0.1 µM, first compound 0.316 µM
# [8] = second compound 0.1 µM, first compound 1 µM
# [9] = second compound 0.316 µM, first compound 0.0316 µM
# [10] = second compound 0.316 µM, first compound 0.1 µM
# [11] = second compound 0.316 µM, first compound 0.316 µM
# [12] = second compound 0.316 µM, first compound 1 µM
# [13] = second compound 1 µM, first compound 0.0316 µM
# [14] = second compound 1 µM, first compound 0.1 µM
# [15] = second compound 1 µM, first compound 0.316 µM
# [16] = second compound 1 µM, first compound 1 µM
# [17] = second compound 3.16 µM, first compound 0.0316 µM
# [18] = second compound 3.16 µM, first compound 0.1 µM
# [19] = second compound 3.16 µM, first compound 0.316 µM
# [20] = second compound 3.16 µM, first compound 1 µM
# [21] = second compound 10 µM, first compound 0.0316 µM
# [22] = second compound 10 µM, first compound 0.1 µM
# [23] = second compound 10 µM, first compound 0.316 µM
# [24] = second compound 10 µM, first compound 1 µM
# [25] = second compound 0.0316 µM, first compound 0.00316 µM
# [26] = second compound 0.0316 µM, first compound 0.01 µM
# [27] = second compound 0.1 µM, first compound 0.00316 µM
# [28] = second compound 0.1 µM, first compound 0.01 µM
# [29] = second compound 0.316 µM, first compound 0.00316 µM
# [30] = second compound 0.316 µM, first compound 0.01 µM
# [31] = second compound 1 µM, first compound 0.00316 µM
# [32] = second compound 1 µM, first compound 0.01 µM
# [33] = second compound 3.16 µM, first compound 0.00316 µM
# [34] = second compound 3.16 µM, first compound 0.01 µM
# [35] = second compound 10 µM, first compound 0.00316 µM
# [36] = second compound 10 µM, first compound 0.01 µM
# 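Further: spheroids exposed to agents for seven days before the viability read.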
compound,measurement,setting,value
CC(C)NCC(C(=O)N1CCN(c2ncnc3c2C(C)CC3O)CC1)c1ccc(Cl)cc1 (stereo unspecified) + CC(Nc1ncnc2nc[nH]c12)c1cc2cccc(Cl)c2c(=O)n1-c1ccccc1,IC50,second compound 0.0316 µM,317 nM
same,IC50,second compound 0.1 µM,490 nM
same,IC50,second compound 0.316 µM,340 nM
same,IC50,second compound 1 µM,491 nM
same,IC50,second compound 3.16 µM,383 nM
same,IC50,second compound 10 µM,454 nM
same,"viability, T/C",[1],87.3%
same,"viability, T/C",[2],75.8%
same,"viability, T/C",[3],47.8%
same,"viability, T/C",[4],27.4%
same,"viability, T/C","second compound 0.0316 µM, first compound 3.16 µM",10.1%
same,"viability, T/C","second compound 0.0316 µM, first compound 10 µM",3.75%
same,"viability, T/C",[5],90.7%
same,"viability, T/C",[6],79.7%
same,"viability, T/C",[7],52.3%
same,"viability, T/C",[8],43.7%
same,"viability, T/C","second compound 0.1 µM, first compound 3.16 µM",12.9%
same,"viability, T/C","second compound 0.1 µM, first compound 10 µM",3.85%
same,"viability, T/C",[9],100%
same,"viability, T/C",[10],77.7%
same,"viability, T/C",[11],50.1%
same,"viability, T/C",[12],32.2%
same,"viability, T/C","second compound 0.316 µM, first compound 3.16 µM",7.64%
same,"viability, T/C","second compound 0.316 µM, first compound 10 µM",5.53%
same,"viability, T/C",[13],95.2%
same,"viability, T/C",[14],84.8%
same,"viability, T/C",[15],64.3%
same,"viability, T/C",[16],27.3%
same,"viability, T/C","second compound 1 µM, first compound 3.16 µM",13.8%
same,"viability, T/C","second compound 1 µM, first compound 10 µM",3.16%
same,"viability, T/C",[17],102%
same,"viability, T/C",[18],82.3%
same,"viability, T/C",[19],52.5%
same,"viability, T/C",[20],30.8%
same,"viability, T/C","second compound 3.16 µM, first compound 3.16 µM",12.4%
same,"viability, T/C","second compound 3.16 µM, first compound 10 µM",4.48%
same,"viability, T/C",[21],87.5%
same,"viability, T/C",[22],76.7%
same,"viability, T/C",[23],61.2%
same,"viability, T/C",[24],28.4%
same,"viability, T/C","second compound 10 µM, first compound 3.16 µM",11%
same,"viability, T/C","second compound 10 µM, first compound 10 µM",3.05%
CCN1CCN(Cc2ccc(Nc3ncc(F)c(-c4cc(F)c5nc(C)n(C(C)C)c5c4)n3)nc2)CC1 + CC(Nc1ncnc2nc[nH]c12)c1cc2cccc(Cl)c2c(=O)n1-c1ccccc1,IC50,second compound 0.0316 µM,917 nM
same,IC50,second compound 0.1 µM,> 1000 nM
same,IC50,second compound 0.316 µM,> 1000 nM
same,IC50,second compound 1 µM,954 nM
same,IC50,second compound 3.16 µM,788 nM
same,IC50,second compound 10 µM,643 nM
same,"viability, T/C",[25],109%
same,"viability, T/C",[26],103%
same,"viability, T/C",[1],97.6%
same,"viability, T/C",[2],96.7%
same,"viability, T/C",[3],81.7%
same,"viability, T/C",[4],47.3%
same,"viability, T/C",[27],106%
same,"viability, T/C",[28],109%
same,"viability, T/C",[5],91.7%
same,"viability, T/C",[6],103%
same,"viability, T/C",[7],99.5%
same,"viability, T/C",[8],61.2%
same,"viability, T/C",[29],103%
same,"viability, T/C",[30],102%
same,"viability, T/C",[9],102%
same,"viability, T/C",[10],104%
same,"viability, T/C",[11],89.4%
same,"viability, T/C",[12],58.1%
same,"viability, T/C",[31],119%
same,"viability, T/C",[32],104%
same,"viability, T/C",[13],94.9%
same,"viability, T/C",[14],109%
same,"viability, T/C",[15],91.6%
same,"viability, T/C",[16],47.8%
same,"viability, T/C",[33],97.9%
same,"viability, T/C",[34],110%
same,"viability, T/C",[17],94.2%
same,"viability, T/C",[18],100%
same,"viability, T/C",[19],93.7%
same,"viability, T/C",[20],38.5%
same,"viability, T/C",[35],92.5%
same,"viability, T/C",[36],92.8%
same,"viability, T/C",[21],90.1%
same,"viability, T/C",[22],86.4%
same,"viability, T/C",[23],83.8%
same,"viability, T/C",[24],29.6%
Cn1ncnc1[C@H]1c2n[nH]c(=O)c3cc(F)cc(c23)N[C@@H]1c1ccc(F)cc1 + CC(Nc1ncnc2nc[nH]c12)c1cc2cccc(Cl)c2c(=O)n1-c1ccccc1,IC50,second compound 0.0316 µM,> 100 nM
same,IC50,second compound 0.1 µM,> 100 nM
same,IC50,second compound 0.316 µM,> 100 nM
same,IC50,second compound 1 µM,> 100 nM
same,IC50,second compound 3.16 µM,> 100 nM
same,IC50,second compound 10 µM,> 100 nM
same,"viability, T/C","second compound 0.0316 µM, first compound 0.000316 µM",91.2%
same,"viability, T/C","second compound 0.0316 µM, first compound 0.001 µM",88.5%
same,"viability, T/C",[25],85.4%
same,"viability, T/C",[26],108%
same,"viability, T/C",[1],105%
same,"viability, T/C",[2],106%
same,"viability, T/C","second compound 0.1 µM, first compound 0.000316 µM",102%
same,"viability, T/C","second compound 0.1 µM, first compound 0.001 µM",97.2%
same,"viability, T/C",[27],98.2%
same,"viability, T/C",[28],86.4%
same,"viability, T/C",[5],101%
same,"viability, T/C",[6],83.1%
same,"viability, T/C","second compound 0.316 µM, first compound 0.000316 µM",100%
same,"viability, T/C","second compound 0.316 µM, first compound 0.001 µM",117%
same,"viability, T/C",[29],98.8%
same,"viability, T/C",[30],104%
same,"viability, T/C",[9],92.7%
same,"viability, T/C",[10],88.6%
same,"viability, T/C","second compound 1 µM, first compound 0.000316 µM",110%
same,"viability, T/C","second compound 1 µM, first compound 0.001 µM",96.5%
same,"viability, T/C",[31],110%
same,"viability, T/C",[32],96.2%
same,"viability, T/C",[13],100%
same,"viability, T/C",[14],79.8%
same,"viability, T/C","second compound 3.16 µM, first compound 0.000316 µM",108%
same,"viability, T/C","second compound 3.16 µM, first compound 0.001 µM",107%
same,"viability, T/C",[33],92.1%
same,"viability, T/C",[34],96.7%
same,"viability, T/C",[17],99.6%
same,"viability, T/C",[18],73.4%
same,"viability, T/C","second compound 10 µM, first compound 0.000316 µM",94.7%
same,"viability, T/C","second compound 10 µM, first compound 0.001 µM",87.1%
same,"viability, T/C",[35],85.8%
same,"viability, T/C",[36],93.3%
same,"viability, T/C",[21],89.3%
same,"viability, T/C",[22],65.2%
